Experimental data reported in the NIST ThermoML archive (doi:10.1016/j.jct.2013.01.012).

Tests used:
[1] = refractive index (Na D-line) (dimensionless); mn = molality of the nth substance listed, in mol/kg; conditions: 101 kPa, Liquid, Standard Abbe refractometry
[2] = mn = molality of the nth substance listed, in mol/kg; conditions: 101 kPa, Liquid; for speed of sound: Sing-around technique in a fixed-path interferometer; for mass density: Vibrating tube method

O=P(O)(O)O [phosphoric acid] + O
Conditions	mass density, 298.15 K [kg/m3]	mass density, 303.15 K [kg/m3]	mass density, 308.15 K [kg/m3]	refractive index, 298.15 K	refractive index, 303.15 K	refractive index, 308.15 K	speed of sound, 298.15 K [m/s]	speed of sound, 303.15 K [m/s]	speed of sound, 308.15 K [m/s]
[1], m1 = 0.1	–	–	–	1.3334	1.3329	1.3323	–	–	–
[1], m1 = 0.3	–	–	–	1.335	1.3345	1.3339	–	–	–
[1], m1 = 0.5	–	–	–	1.3366	1.336	1.3356	–	–	–
[1], m1 = 0.7	–	–	–	1.3381	1.3376	1.3371	–	–	–
[1], m1 = 0.9	–	–	–	1.3397	1.3393	1.3388	–	–	–
[2], m1 = 0.1	1002.05	1000.62	998.962	–	–	–	1497.1	1509.2	1519.7
[2], m1 = 0.3	1011.37	1009.93	1008.27	–	–	–	1498.3	1510.2	1520.4
[2], m1 = 0.5	1021.09	1019.94	1018.07	–	–	–	1500	1511.6	1521.6
[2], m1 = 0.7	1030.49	1029.49	1028.12	–	–	–	1502	1513.2	1523
[2], m1 = 0.9	1040.62	1039.05	1037.8	–	–	–	1504.2	1515.1	1524.6

O=P([O-])([O-])O.[K+].[K+] [dipotassium hydrogen phosphate] + O
Conditions	mass density, 298.15 K [kg/m3]	mass density, 303.15 K [kg/m3]	mass density, 308.15 K [kg/m3]	refractive index, 298.15 K	refractive index, 303.15 K	refractive index, 308.15 K	speed of sound, 298.15 K [m/s]	speed of sound, 303.15 K [m/s]	speed of sound, 308.15 K [m/s]
[1], m1 = 0.1	–	–	–	1.3354	1.3346	1.334	–	–	–
[1], m1 = 0.3	–	–	–	1.3404	1.3397	1.3392	–	–	–
[1], m1 = 0.5	–	–	–	1.3456	1.3453	1.3445	–	–	–
[1], m1 = 0.7	–	–	–	1.3506	1.35	1.3495	–	–	–
[1], m1 = 0.9	–	–	–	1.3557	1.3554	1.3547	–	–	–
[2], m1 = 0.1	1016.33	1015.38	1014.18	–	–	–	1512.8	1525.1	1535.6
[2], m1 = 0.3	1041.48	1040.03	1038.39	–	–	–	1542.9	1553.8	1563.4
[2], m1 = 0.5	1072.35	1071.14	1069.06	–	–	–	1574.6	1584.6	1593.3
[2], m1 = 0.7	1103.77	1103.01	1103.01	–	–	–	1607.3	1616.8	1626
[2], m1 = 0.9	1135.65	1136.16	1134.44	–	–	–	1641.6	1651.1	1657.8

O=P([O-])(O)O.[Li+] [lithium dihydrogen phosphate] + O
Conditions	mass density, 298.15 K [kg/m3]	mass density, 303.15 K [kg/m3]	mass density, 308.15 K [kg/m3]	refractive index, 298.15 K	refractive index, 303.15 K	refractive index, 308.15 K	speed of sound, 298.15 K [m/s]	speed of sound, 303.15 K [m/s]	speed of sound, 308.15 K [m/s]
[1], m1 = 0.1	–	–	–	1.3342	1.3332	1.3327	–	–	–
[1], m1 = 0.3	–	–	–	1.3365	1.3363	1.3355	–	–	–
[1], m1 = 0.5	–	–	–	1.3394	1.339	1.3387	–	–	–
[1], m1 = 0.7	–	–	–	1.3421	1.3418	1.3414	–	–	–
[1], m1 = 0.9	–	–	–	1.3452	1.3448	1.3444	–	–	–
[2], m1 = 0.1	1004.55	1003.21	1001.59	–	–	–	1506.5	1518.5	1528.8
[2], m1 = 0.3	1018.97	1017.71	1016.05	–	–	–	1525.5	1536.8	1546.5
[2], m1 = 0.5	1033.8	1032.57	1031.29	–	–	–	1544.1	1555	1564.5
[2], m1 = 0.7	1048.96	1048.1	1046.58	–	–	–	1569.2	1573.7	1582.6
[2], m1 = 0.9	1064.91	1063.79	1055.48	–	–	–	1582.6	1593	1593.1

O=P([O-])([O-])O.[Na+].[Na+] [disodium hydrogen phosphate] + O
Conditions	mass density, 298.15 K [kg/m3]	mass density, 303.15 K [kg/m3]	mass density, 308.15 K [kg/m3]	refractive index, 298.15 K	refractive index, 303.15 K	refractive index, 308.15 K	speed of sound, 298.15 K [m/s]	speed of sound, 303.15 K [m/s]	speed of sound, 308.15 K [m/s]
[1], m1 = 0.1	–	–	–	1.3354	1.3347	1.3344	–	–	–
[1], m1 = 0.3	–	–	–	1.3408	1.3404	1.3398	–	–	–
[1], m1 = 0.5	–	–	–	1.3457	1.3456	1.3448	–	–	–
[1], m1 = 0.7	–	–	–	1.3512	1.3507	1.3499	–	–	–
[1], m1 = 0.9	–	–	–	1.3562	1.3557	1.3552	–	–	–
[2], m1 = 0.1	1010.86	1009.51	1008.19	–	–	–	1514.6	1526.5	1537
[2], m1 = 0.3	1038.69	1037	1035.61	–	–	–	1549.5	1560.1	1569.8
[2], m1 = 0.5	1066.76	1069.09	1051.41	–	–	–	1583.5	1598.6	1588.7
[2], m1 = 0.7	1096.95	1095.37	1099.82	–	–	–	1621.3	1630	1646.2
[2], m1 = 0.9	1129.62	1128.52	1162.21	–	–	–	1663.2	1672.3	1685.8
